Calls of active or inactive are those of the source.
Legend:
[1] = test system: Human alphaherpesvirus 3; assay: Antiviral activity against VZV assessed as inhibition of viral replication by cell-based assay; type: functional, organism-based
[2] = test system: A-375; assay: Antiproliferative activity against human A375 cells up to 100 uM by Celltiter-Glo assay; type: functional, cell-based
[3] = test system: Human gammaherpesvirus 4; assay: Antiviral activity against EBV assessed as inhibition of viral replication by cell-based assay; type: functional, organism-based
[4] = test system: HCT cell line; assay: Antiproliferative activity against human HCT cells up to 100 uM by Celltiter-Glo assay; type: functional, cell-based
[5] = test system: Cytomegalovirus; assay: Antiviral activity against CMV assessed as inhibition of viral replication by cell-based assay; type: functional, organism-based
[6] = test system: Human alphaherpesvirus 1; assay: Antiviral activity against HSV1 assessed as inhibition of viral replication by cell-based assay; type: functional, organism-based
[7] = test system: SW480; assay: Antiproliferative activity against human SW480 cells up to 100 uM by Celltiter-Glo assay; type: functional, cell-based

Nc1ccn([C@@]23C[C@@H]2C[C@@H](CO)O3)c(=O)n1
inactive: inhibition [1] | Activity [2] | inhibition [3] | Activity [4] | inhibition [5] | inhibition [6] | Activity [7]

O=c1ccn([C@@]23C[C@@H]2C[C@@H](CO)O3)c(=O)[nH]1
inactive: inhibition [1] | Activity [2] | inhibition [3] | Activity [4] | inhibition [5] | inhibition [6] | Activity [7]

CC(C)OC(=O)[C@H](C)NP(=O)(OC[C@@H]1C[C@H]2C[C@@]2(n2ccc(=O)[nH]c2=O)O1)Oc1ccccc1 (stereo partly drawn)
inactive: inhibition [1] | Activity [2] | inhibition [3] | Activity [4] | inhibition [5] | inhibition [6] | Activity [7]

CC(C)OC(=O)[C@H](C)NP(=O)(OC[C@@H]1C[C@H]2C[C@@]2(n2ccc(N)nc2=O)O1)Oc1ccccc1 (stereo partly drawn)
inactive: inhibition [1] | Activity [2] | inhibition [3] | Activity [4] | inhibition [5] | inhibition [6] | Activity [7]
